SMILES strings stand for the structures.

For one test, the target named is T1, Human CaV2.2 channels (Homo sapiens, UniProt Q00975).
T1 construct: expressed in transfected cells
T1 sequence (P54289 947-1103): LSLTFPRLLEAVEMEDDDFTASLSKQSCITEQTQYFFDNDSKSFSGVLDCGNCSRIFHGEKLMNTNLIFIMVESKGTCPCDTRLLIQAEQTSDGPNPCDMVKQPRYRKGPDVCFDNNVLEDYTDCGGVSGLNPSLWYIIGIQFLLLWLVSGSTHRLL
T1 sequence (P54289 25-946): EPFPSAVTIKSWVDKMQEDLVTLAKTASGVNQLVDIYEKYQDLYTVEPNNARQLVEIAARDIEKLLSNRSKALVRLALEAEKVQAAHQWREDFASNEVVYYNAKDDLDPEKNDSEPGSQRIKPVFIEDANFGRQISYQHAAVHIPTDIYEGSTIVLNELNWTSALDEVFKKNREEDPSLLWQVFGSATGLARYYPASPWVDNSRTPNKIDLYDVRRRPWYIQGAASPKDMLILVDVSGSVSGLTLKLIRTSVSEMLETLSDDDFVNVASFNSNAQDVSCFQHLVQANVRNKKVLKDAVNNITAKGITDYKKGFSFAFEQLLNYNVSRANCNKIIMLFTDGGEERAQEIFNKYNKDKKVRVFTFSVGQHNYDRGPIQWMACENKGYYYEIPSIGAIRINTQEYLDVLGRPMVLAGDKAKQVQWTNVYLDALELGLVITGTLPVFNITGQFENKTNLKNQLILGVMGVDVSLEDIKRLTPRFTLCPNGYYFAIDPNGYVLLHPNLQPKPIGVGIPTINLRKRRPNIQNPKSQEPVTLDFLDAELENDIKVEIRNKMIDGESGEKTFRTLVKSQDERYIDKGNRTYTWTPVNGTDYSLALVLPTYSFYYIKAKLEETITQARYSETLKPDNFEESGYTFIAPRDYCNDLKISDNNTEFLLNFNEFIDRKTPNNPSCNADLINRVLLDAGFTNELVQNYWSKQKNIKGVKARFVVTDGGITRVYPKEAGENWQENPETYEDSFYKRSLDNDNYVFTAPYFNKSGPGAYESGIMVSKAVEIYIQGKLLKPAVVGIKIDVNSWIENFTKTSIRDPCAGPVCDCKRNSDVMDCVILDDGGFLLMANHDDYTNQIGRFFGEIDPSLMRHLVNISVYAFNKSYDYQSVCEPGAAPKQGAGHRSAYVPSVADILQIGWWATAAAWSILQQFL
T1 sequence (P54284 whole entry, further chain): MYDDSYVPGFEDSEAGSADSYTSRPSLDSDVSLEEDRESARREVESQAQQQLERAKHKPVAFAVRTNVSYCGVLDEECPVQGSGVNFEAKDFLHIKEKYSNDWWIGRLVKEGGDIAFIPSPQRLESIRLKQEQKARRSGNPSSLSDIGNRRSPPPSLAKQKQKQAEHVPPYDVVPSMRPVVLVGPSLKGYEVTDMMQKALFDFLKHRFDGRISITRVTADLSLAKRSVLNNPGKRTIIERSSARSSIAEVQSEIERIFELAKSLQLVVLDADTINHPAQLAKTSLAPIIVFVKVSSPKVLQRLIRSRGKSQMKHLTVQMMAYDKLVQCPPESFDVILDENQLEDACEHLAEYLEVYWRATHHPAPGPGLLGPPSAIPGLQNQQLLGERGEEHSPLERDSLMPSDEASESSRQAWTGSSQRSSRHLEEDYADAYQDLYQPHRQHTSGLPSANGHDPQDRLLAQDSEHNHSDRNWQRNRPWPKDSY
T1 sequence (Q00975 whole entry): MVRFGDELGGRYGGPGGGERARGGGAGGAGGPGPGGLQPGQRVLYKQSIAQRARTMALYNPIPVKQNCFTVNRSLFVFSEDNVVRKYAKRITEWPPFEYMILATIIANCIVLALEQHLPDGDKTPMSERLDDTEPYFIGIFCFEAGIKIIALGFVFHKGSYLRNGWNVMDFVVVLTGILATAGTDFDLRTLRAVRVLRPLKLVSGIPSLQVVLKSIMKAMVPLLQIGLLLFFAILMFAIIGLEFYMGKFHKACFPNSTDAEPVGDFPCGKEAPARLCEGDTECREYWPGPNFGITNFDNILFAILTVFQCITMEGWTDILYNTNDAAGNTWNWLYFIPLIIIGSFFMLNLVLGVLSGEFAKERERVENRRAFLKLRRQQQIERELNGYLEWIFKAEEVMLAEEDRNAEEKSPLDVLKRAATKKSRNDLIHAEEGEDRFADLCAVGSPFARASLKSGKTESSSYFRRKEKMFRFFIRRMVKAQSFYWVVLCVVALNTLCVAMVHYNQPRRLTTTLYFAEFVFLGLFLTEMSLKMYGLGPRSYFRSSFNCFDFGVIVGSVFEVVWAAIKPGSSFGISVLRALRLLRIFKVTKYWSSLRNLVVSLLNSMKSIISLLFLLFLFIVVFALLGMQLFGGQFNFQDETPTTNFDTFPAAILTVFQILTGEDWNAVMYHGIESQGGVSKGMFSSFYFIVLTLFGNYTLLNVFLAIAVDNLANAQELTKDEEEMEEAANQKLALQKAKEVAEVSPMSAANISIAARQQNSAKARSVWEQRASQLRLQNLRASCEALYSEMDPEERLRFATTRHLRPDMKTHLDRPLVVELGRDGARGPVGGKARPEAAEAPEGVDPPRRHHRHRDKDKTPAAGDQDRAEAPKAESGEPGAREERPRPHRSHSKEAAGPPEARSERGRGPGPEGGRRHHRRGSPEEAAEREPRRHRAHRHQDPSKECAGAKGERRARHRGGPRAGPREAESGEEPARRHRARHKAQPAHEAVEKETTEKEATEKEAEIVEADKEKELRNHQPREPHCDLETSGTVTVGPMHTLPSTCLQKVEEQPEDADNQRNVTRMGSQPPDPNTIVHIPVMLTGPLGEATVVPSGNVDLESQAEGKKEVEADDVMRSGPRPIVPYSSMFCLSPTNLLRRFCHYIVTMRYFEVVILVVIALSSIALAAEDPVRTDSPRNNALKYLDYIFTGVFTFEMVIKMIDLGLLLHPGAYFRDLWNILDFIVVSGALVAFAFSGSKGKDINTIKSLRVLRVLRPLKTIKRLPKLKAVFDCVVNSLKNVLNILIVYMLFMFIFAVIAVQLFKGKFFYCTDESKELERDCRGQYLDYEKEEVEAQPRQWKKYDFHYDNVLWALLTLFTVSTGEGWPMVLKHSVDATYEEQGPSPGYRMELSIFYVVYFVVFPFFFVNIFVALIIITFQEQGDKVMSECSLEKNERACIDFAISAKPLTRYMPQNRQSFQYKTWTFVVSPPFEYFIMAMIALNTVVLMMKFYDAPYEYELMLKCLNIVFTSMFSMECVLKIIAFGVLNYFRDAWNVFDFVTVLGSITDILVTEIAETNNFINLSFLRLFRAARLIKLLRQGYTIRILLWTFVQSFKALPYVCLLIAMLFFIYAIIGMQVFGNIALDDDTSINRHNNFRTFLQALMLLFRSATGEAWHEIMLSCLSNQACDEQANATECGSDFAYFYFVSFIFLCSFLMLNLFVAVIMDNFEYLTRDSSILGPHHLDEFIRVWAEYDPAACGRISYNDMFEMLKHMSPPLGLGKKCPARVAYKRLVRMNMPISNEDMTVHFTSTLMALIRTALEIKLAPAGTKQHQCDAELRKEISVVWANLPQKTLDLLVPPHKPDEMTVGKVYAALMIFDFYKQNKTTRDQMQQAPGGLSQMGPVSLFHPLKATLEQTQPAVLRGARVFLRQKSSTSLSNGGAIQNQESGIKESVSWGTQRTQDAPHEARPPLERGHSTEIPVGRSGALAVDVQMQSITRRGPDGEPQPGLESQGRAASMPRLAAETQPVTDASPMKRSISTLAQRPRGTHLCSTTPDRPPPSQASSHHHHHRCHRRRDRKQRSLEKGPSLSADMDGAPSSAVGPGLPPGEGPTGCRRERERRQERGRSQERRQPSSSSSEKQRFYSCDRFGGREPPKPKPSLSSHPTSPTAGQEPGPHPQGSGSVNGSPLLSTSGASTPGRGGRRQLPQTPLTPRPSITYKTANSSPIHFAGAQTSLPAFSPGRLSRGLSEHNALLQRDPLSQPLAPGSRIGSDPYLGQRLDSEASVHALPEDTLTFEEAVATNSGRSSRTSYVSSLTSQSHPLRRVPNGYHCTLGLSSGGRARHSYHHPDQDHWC
Briefly: Fluorescence assay for CaV2.2 channels using potassium depolarization to induce channel opening (FLIPR, Fluo 4). It counts as cell-based. The following applies: 3 μM test compound; alternative assay buffer 30 mM KCl (inactivated channel state); HEK293 cells stably expressing human CaV2.2. The procedure, abridged: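 HEK293 cells stably co-expressing CaV2.2 with alpha2-delta and beta subunits plus Kir2.3, loaded with 2 μM Fluo 4 and pre-incubated 15 min at 25° C with compound in 1 mM or 30 mM KCl buffer (pH 7.4; latter promotes inactivated state). Depolarized by KCl addition; peak fluorescence amplitude normalized to baseline gives inhibition.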
Take `COc1cc(C#N)c(C2CC(C)(S(=O)(=O)c3cccc(C(F)(F)F)c3)CCO2)cn1` (stereo not shown) [SC-260, 2-Methoxy-5-[4-methyl-4-[[3-(trifluoromethyl)phenyl]sulfonyl]-tetrahydro-pyran-2-yl]-isonicotinonitrile]: the “Activity Category: %-Inhib (CaV2.2) @3 μM @30 mM KCl” value was “A (%-Inhibition >95%)”.
Turning to `COc1cc(C#N)c(C2CC(C)(S(=O)(=O)c3cccc(C(F)(F)F)c3)CCO2)cn1` (stereo not shown) [SC-261, 2-Methoxy-5-[4-methyl-4-[[3-(trifluoromethyl)phenyl]sulfonyl]-tetrahydro-pyran-2-yl]-isonicotinonitrile], the “Activity Category: %-Inhib (CaV2.2) @3 μM @30 mM KCl” value is “C (%-Inhibition >40% up to ≤75%)”.
Still for that read-out and setting: the value for `CC1(S(=O)(=O)c2cccc(C(F)(F)F)c2)CCOC(c2ncc(S(C)(=O)=O)cc2OC(F)F)C1` (stereo not shown) [SC-269, 3-(difluoromethoxy)-2-(4-methyl-4-((3-(trifluoromethyl)phenyl)sulfonyl)tetrahydro-2H-pyran-2-yl)-5-(methylsulfonyl)pyridine] was “A (%-Inhibition >95%)”; that for `CC1(S(=O)(=O)c2cccc(C(F)(F)F)c2)CCOC(c2cnc(C(F)(F)F)nc2)C1` (stereo not shown) [SC-305, 5-[4-Methyl-4-[[3-(trifluoromethyl)phenyl]sulfonyl]-tetrahydro-pyran-2-yl]-2-(trifluoromethyl)-pyrimidine] was “A (%-Inhibition >95%)”; that for `CCC1(S(=O)(=O)c2cccc(C(F)(F)F)c2)CCOC(c2ccc(C)nc2C)C1` (stereo not shown) [SC-317, 3-[4-Ethyl-4-[[3-(trifluoromethyl)phenyl]sulfonyl]-tetrahydro-pyran-2-yl]-2,6-dimethyl-pyridine] was “C (%-Inhibition >40% up to ≤75%)”.
On the same count and under the same terms, then `CCC1(S(=O)(=O)c2cccc(C(F)(F)F)c2)CCOC(c2ccc(C)nc2C)C1` (stereo not shown) [SC-318, 3-[4-Ethyl-4-[[3-(trifluoromethyl)phenyl]sulfonyl]-tetrahydro-pyran-2-yl]-2,6-dimethyl-pyridine], with “B (%-Inhibition >75% up to ≤95%)”; and `CC1(S(=O)(=O)c2cccc(C(F)(F)F)c2)CCOC(c2cnc(C3CC3)cn2)C1` (stereo not shown) [SC-329, 2-Cyclopropyl-5-[4-methyl-4-[[3-(trifluoromethyl)phenyl]sulfonyl]-tetrahydro-pyran-2-yl]-pyrazine], with “A (%-Inhibition >95%)”; and `CN(C)c1ccc(C2CC(C)(S(=O)(=O)c3cccc(C(F)(F)F)c3)CCO2)cn1` (stereo not shown) [SC-331, Dimethyl-[5-[4-methyl-4-[[3-(trifluoromethyl)phenyl]sulfonyl]-tetrahydro-pyran-2-yl]-pyridin-2-yl]-amine], with “A (%-Inhibition >95%)”.
Still for that read-out and setting: the value for `CC1(S(=O)(=O)c2cccc(C(F)(F)F)c2)CCOC(c2ccc(S(C)(=O)=O)nc2)C1` (stereo not shown) [SC-336, 2-Methylsulfonyl-5-[4-methyl-4-[[3-(trifluoromethyl)phenyl]sulfonyl]-tetrahydro-pyran-2-yl]-pyridine] was “C (%-Inhibition >40% up to ≤75%)”; that for `CC1(S(=O)(=O)c2cccc(C(F)(F)F)c2)CCOC(c2ccc(S(C)(=O)=O)nc2)C1` (stereo not shown) [SC-338, 2-Methylsulfonyl-5-[4-methyl-4-[[3-(trifluoromethyl)phenyl]sulfonyl]-tetrahydro-pyran-2-yl]-pyridine] was “B (%-Inhibition >75% up to ≤95%)”; that for `Cn1nc(C(F)(F)F)cc1C1CC(C)(S(=O)(=O)c2cccc(C(F)(F)F)c2)CCO1` (stereo not shown) [SC-345, 1-Methyl-5-[4-methyl-4-[[3-(trifluoromethyl)phenyl]sulfonyl]-tetrahydro-pyran-2-yl]-3-(trifluoromethyl)-1H-pyrazole] was “A (%-Inhibition >95%)”.

Staying with this test, now noted: HEK293, 3 μM test compound; alternative assay buffer 30 mM KCl (inactivated channel state); HEK293 cells stably expressing human CaV2.2; read-out: Activity Category: %-Inhib (CaV2.2) @3 μM @30 mM KCl.
Consider `Cc1cc(S(C)(=O)=O)cnc1C1CC(C)(S(=O)(=O)c2cccc(C(F)(F)F)c2)CCO1` (stereo not shown) [SC-262, 3-Methyl-5-methylsulfonyl-2-[4-methyl-4-[[3-(trifluoromethyl)phenyl]sulfonyl]-tetrahydro-pyran-2-yl]-pyridine], for which the inhibition at 3 µM lay in the range of 75 to 95%.
Turning to `CC1(S(=O)(=O)c2cccc(C(F)F)c2)CCOC(c2ncc(S(C)(=O)=O)cc2Cl)C1` (stereo not shown) [SC-265, 3-Chloro-2-[4-[[3-(difluoro-methyl)-phenyl]sulfonyl]-4-methyl-tetrahydro-pyran-2-yl]-5-methylsulfonyl-pyridine], the inhibition at 3 µM is 40 to 75%.
The same measure, in the same setting: then `CC1(S(=O)(=O)c2cccc(C(F)(F)F)c2)CCOC(c2ncc(OC(F)F)cc2S(C)(=O)=O)C1` (stereo not shown) [SC-266, 5-(difluoromethoxy)-2-(4-methyl-4-((3-(trifluoromethyl)phenyl)sulfonyl)tetrahydro-2H-pyran-2-yl)-3-(methylsulfonyl)pyridine], with above 95%.
With `CC1(S(=O)(=O)c2cccc(C(F)(F)F)c2)CCOC(c2ncc(S(C)(=O)=O)cc2OC(F)F)C1` (stereo not shown) [SC-268, 3-(difluoromethoxy)-2-(4-methyl-4-((3-(trifluoromethyl)phenyl)sulfonyl)tetrahydro-2H-pyran-2-yl)-5-(methylsulfonyl)pyridine], the inhibition at 3 µM lay in the range of 75 to 95%.
On to `CC1(S(=O)(=O)c2cccc(C(F)(F)F)c2)CCOC(c2ncc(S(C)(=O)=O)cc2C2CC2)C1` (stereo not shown) [SC-270, 3-cyclopropyl-2-(4-methyl-4-(3-(trifluoromethyl)phenylsulfonyl)tetrahydro-2H-pyran-2-yl)-5-(methylsulfonyl)pyridine], for which the inhibition at 3 µM lay in the range of 75 to 95%.
For the molecule `CC(C)Oc1ccc(C2CC(C)(S(=O)(=O)c3cccc(C(F)(F)F)c3)CCO2)cn1` (stereo not shown) [SC-300, 2-Isopropoxy-5-[4-methyl-4-[[3-(trifluoromethyl)phenyl]sulfonyl]-tetrahydro-pyran-2-yl]-pyridine], the inhibition at 3 µM was above 95%.
With `CC1(S(=O)(=O)c2cccc(C(F)(F)F)c2)CCOC(c2cnc(C(F)(F)F)nc2)C1` (stereo not shown) [SC-304, 5-[4-Methyl-4-[[3-(trifluoromethyl)phenyl]sulfonyl]-tetrahydro-pyran-2-yl]-2-(trifluoromethyl)-pyrimidine], the inhibition at 3 µM fell in the range of 75 to 95%.
With `CC1(S(=O)(=O)c2cccc(C(F)(F)F)c2)CCOC(c2ccc(C(F)(F)F)cn2)C1` (stereo not shown) [SC-309, 2-[4-Methyl-4-[[3-(trifluoromethyl)phenyl]sulfonyl]-tetrahydro-pyran-2-yl]-5-(trifluoromethyl)-pyridine], the inhibition at 3 µM is above 95%.
On the same count and under the same terms, then `CCC1(S(=O)(=O)c2cccc(C(F)(F)F)c2)CCOC(c2cccnc2C)C1` (stereo not shown) [SC-312, 3-[4-Ethyl-4-[[3-(trifluoromethyl)phenyl]sulfonyl]-tetrahydro-pyran-2-yl]-2-methyl-pyridine], with 40 to 75%; and `CC1(S(=O)(=O)c2cccc(C(F)(F)F)c2)CCOC(c2ccc(C(F)(F)F)nc2)C1` (stereo not shown) [SC-315, 5-[4-Methyl-4-[[3-(trifluoromethyl)phenyl]sulfonyl]-tetrahydro-pyran-2-yl]-2-(trifluoromethyl)-pyridine], with above 95%; and `CCC1(S(=O)(=O)c2cccc(C(F)(F)F)c2)CCOC(c2cccc(C)n2)C1` (stereo not shown) [SC-324, 2-[4-Ethyl-4-[[3-(trifluoromethyl)phenyl]sulfonyl]-tetrahydro-pyran-2-yl]-6-methyl-pyridine], with 75 to 95%.
Take `CC1(S(=O)(=O)c2cccc(C(F)(F)F)c2)CCOC(c2cncc(C3CC3)c2)C1` (stereo not shown) [SC-325, 3-Cyclopropyl-5-[4-methyl-4-[[3-(trifluoromethyl)phenyl]sulfonyl]-tetrahydro-pyran-2-yl]-pyridine]: the inhibition at 3 µM was above 95%.
The same measure, in the same setting: the value for `CC1(S(=O)(=O)c2cccc(C(F)(F)F)c2)CCOC(c2cnc(C3CC3)cn2)C1` (stereo not shown) [SC-327, 2-Cyclopropyl-5-[4-methyl-4-[[3-(trifluoromethyl)phenyl]sulfonyl]-tetrahydro-pyran-2-yl]-pyrazine] was 75 to 95%.
On to `CN(C)c1ccc(C2CC(C)(S(=O)(=O)c3cccc(C(F)(F)F)c3)CCO2)cn1` (stereo not shown) [SC-330, Dimethyl-[5-[4-methyl-4-[[3-(trifluoromethyl)phenyl]sulfonyl]-tetrahydro-pyran-2-yl]-pyridin-2-yl]-amine], for which the inhibition at 3 µM fell in the range of 75 to 95%.
Consider `CCC1(S(=O)(=O)c2cccc(C(F)(F)F)c2)CCOC(c2cnc(C3CC3)cn2)C1` (stereo not shown) [SC-332, 2-Cyclopropyl-5-[4-ethyl-4-[[3-(trifluoromethyl)phenyl]sulfonyl]-tetrahydro-pyran-2-yl]-pyrazine], for which the inhibition at 3 µM was in the range of 75 to 95%.
Still for that read-out and setting: then `Cc1ccc(C2CC(S(=O)(=O)c3cccc(C(F)(F)F)c3)CCO2)c(C)n1` (stereo not shown) [SC-335, 2,6-Dimethyl-3-[4-[[3-(trifluoromethyl)phenyl]sulfonyl]-tetrahydro-pyran-2-yl]-pyridine], with 40 to 75%; and `CC(C)Oc1ccc(C2CC(S(=O)(=O)c3cccc(C(F)(F)F)c3)CCO2)cn1` (stereo not shown) [SC-339, 2-Isopropoxy-5-[4-[[3-(trifluoromethyl)phenyl]sulfonyl]-tetrahydro-pyran-2-yl]-pyridine], with above 95%.
The same measure, in the same setting: then `O=S(=O)(c1cccc(C(F)(F)F)c1)C1CCOC(c2ccc(C(F)(F)F)nc2)C1` (stereo not shown) [SC-342, 2-(Trifluoromethyl)-5-[4-[[3-(trifluoromethyl)phenyl]sulfonyl]-tetrahydro-pyran-2-yl]-pyridine], with 75 to 95%.
Turning to `Cn1nc(C(F)(F)F)cc1C1CC(C)(S(=O)(=O)c2cccc(C(F)(F)F)c2)CCO1` (stereo not shown) [SC-343, 1-Methyl-5-[4-methyl-4-[[3-(trifluoromethyl)phenyl]sulfonyl]-tetrahydro-pyran-2-yl]-3-(trifluoromethyl)-1H-pyrazole], the inhibition at 3 µM is 75 to 95%.
On to `CC1(S(=O)(=O)c2cccc(C(F)(F)F)c2)CCOC(c2ccc(C3CC3)nc2)C1` (stereo not shown) [SC-346, 2-Cyclopropyl-5-[4-methyl-4-[[3-(trifluoromethyl)phenyl]sulfonyl]-tetrahydro-pyran-2-yl]-pyridine], for which the inhibition at 3 µM lay within 75 to 95%.

The record behind these values is patent publication US9926302B2, “Heteroaryl substituted heterocyclyl sulfones” (priority 2014, dated 2018).
